Source: patent US10214507B2, “Carbazole-containing amides, carbamates, and ureas as cryptochrome modulators” (Reset Therapeutics, Inc., priority 2014, dated 2019)

Key:
[1] = test system: db/db mouse model of type II diabetes; test: Single dose at peak or nadir of clock gene expression, OGTT in db/db mice; assay type: in vivo
Description: Mice were split into two study arms, to be dosed at either the peak or nadir of Cry1 and Bmal1 gene expression. […] Mice dosed at ZT10 were fasted beginning at 8:30 am in the same manner.
Significance was accepted when p<0.05.

[2] = Pharmacokinetic analysis in ICR mice (plasma and liver, LC/MS/MS); assay type: in vivo, mouse; conditions: 50 mg/kg P.O.; for Cmax / Tmax / half-life / MRT last: male, ICR, po; for Cmax: 50 mg/kg; for half-life: read-out: Elimination T1/2 (converted); for MRT last: read-out: MRT (0-last, hr)
Protocol: Male ICR mice (weighing 30-40 g, Charles River Laboratories) were used for the experiment with n=3 mice for each experimental group (27 mice total for the study). […] Blood and liver tissue were collected at the following time points after administration: 15, 30, 60, 90 minutes, 3, 6, 12 and 24 hours. A control group of animals (TO) was also sampled. Animals were euthanized with CO2 and the blood collected from the heart using cardiac puncture, transferred to an EDTA tube, and then centrifuged at 5400 rpm for 5 minutes at 4° C. The resultant plasma was frozen using dry ice and then stored at −80° C. until ready for assay. Liver tissue was removed from each animal, 0.5 g was collected in an eppendorff, frozen and submitted for pharmacokinetic measurement. […] Raw data was analyzed using WinNonLin for PK parameters (Cmax, Tmax, elimination t^1/2, MRT (mean residence time), AUC (area under the curve)−(0-last and % extrapolated).

[3] = Pharmacokinetic analysis in SD rats (plasma, LC/MS/MS); assay type: in vivo, rat; conditions: 50 mg/kg P.O.; for Cmax: plasma, 50 mg/kg
Protocol: Male SD rats (weighing 250-300 g, Charles River Laboratories) were used for the experiment with n=4 rats for each experimental group. […] Blood was collected at the following time points after administration: 15, 30, 60, 90 minutes, 3, 6, 12 and 24 hours. A pre-dose sample was also collected. Animals were cannulated by technical staff at Charles River, prior to delivery at Reset. Whole blood (0.3 ml) was collected from a cannula in the right common jugular vein at each time-point. The whole blood was transferred to an EDTA tube, and then centrifuged at 5400 rpm for 5 minutes at 4° C. The resultant plasma was frozen using dry ice and then stored at −80° C. until ready for assay. 0.9% Sodium Chloride (0.3 ml) was administered for fluid replenishment after each blood draw. 0.1 ml of Sodium Heparin (500 IU/ml) was used as a lock solution after the 12 hr time-point. Samples were assayed as described above.

Structure (SMILES): O=C1NCCN1CC(O)Cn1c2ccc(F)cc2c2cc(F)ccc21 (centres unmarked) [Compound 72, 1-(3-(3,6-difluoro-9H-carbazol-9-yl)-2-hydroxypropyl)imidazolidin-2-one]
- effect on OGTT measurement, dosed at peak of Cry1 and Bmal1 expression ([1]; single dose 50 mg/kg PO at ZT0): apparent effect
- effect on OGTT measurement, dosed at nadir ([1]; single dose 50 mg/kg PO at ZT10): no effect
- glucose AUC calculated from the OGTT ([1]; single dose 50 mg/kg PO at peak (ZT0), mean+/-S.E.M.): 63842+/−4318
- reduction in glucose excursion (AUC) ([1]; single dose 50 mg/kg PO at peak (ZT0), vs vehicle): 14%
- Cmax ([2]; mouse, liver, mouse liver, read-out: Cmax): 7890 ng/mL
- Cmax ([2]; mouse, liver, mouse, unbound, read-out: Cmax UB (liver)): 288 ng/mL
- Cmax ([2]; mouse, plasma, mouse plasma, read-out: Cmax): 1150 ng/mL
- Cmax ([2]; mouse, plasma, mouse, read-out: Cmax (plasma)): 1150 ng/mL
- Cmax ([2]; mouse, plasma, mouse, unbound, read-out: Cmax UB (plasma)): 41.9 ng/mL
- Tmax ([2]; mouse liver): 0.25 to 0.5 h
- half-life ([2]; mouse liver): 3.4 h
- MRT last ([2]; mouse liver): 4.74 h
- Tmax ([2]; mouse plasma): 0.25 to 0.5 h
- half-life ([2]; mouse plasma): 3.13 h
- MRT last ([2]; mouse plasma): 5.3 h
- % AUC extrapolated ([2]; mouse liver): 0.85%
- AUC (total; ng · hr/mL) ([2]; mouse liver): 17961 ng·h/mL
- % AUC extrapolated ([2]; mouse plasma): 1.74%
- AUC (total; ng · hr/mL) ([2]; mouse plasma): 4236 ng·h/mL
- Cmax (liver) ([2]; mouse): 7890 ng/mL
- Total Liver AUC (0-last) ([2]; mouse): 17822
- Unbound Liver AUC (0-last) ([2]; mouse): 650.5
- Unbound Plasma AUC (0-last) ([2]; mouse): 151.5
- Tmax ([3]; male, SD, po, rat plasma): 1.7 h
- half-life ([3]; male, SD, po, rat plasma, read-out: Elimination T1/2 (converted)): 1.87 h
- MRT last ([3]; male, SD, po, rat plasma, read-out: MRT (0-last, hr)): 4.94 h
- Cmax ([3]; male, SD, rat, po, rat plasma, read-out: Cmax): 7100 ng/mL
- Cmax ([3]; male, SD, rat, po, rat, read-out: Cmax (plasma)): 7100 ng/mL
- Cmax ([3]; male, SD, rat, po, rat, unbound, read-out: Cmax UB (plasma)): 277 ng/mL
- % AUC extrapolated ([3]; rat plasma): 3.3%
- AUC (total; ng · hr/mL) ([3]; rat plasma): 57952 ng·h/mL
- Unbound Plasma AUC (0-last) ([3]; rat): 2259
